# Test results from US20070219236A1, “Dialkoxy-Imidazopyridines Derivatives” (Atlanta Pharma AG, priority 2004, published 2007).
# Tested on: pentagastrin-stimulated acid secretion of the perfused rat stomach
# Assay: Secretion-inhibiting action on the perfused rat stomach (pentagastrin-stimulated acid secretion)
# Format: in vivo
# Conditions: anesthetized CD rat, female; dose 2 μmol/kg i.d. (intraduodenal); pentagastrin 1 μg/kg i.v. continuous infusion
# Description: Testing of the Secretion-Inhibiting Action on the Perfused Rat Stomach
# In Table A which follows, the influence of the compounds according to the invention on the pentagastrin-stimulated acid secretion of the perfused rat stomach after intraduodenal administration in vivo is shown.
# The abdomen of anesthetized rats (CD rat, female, 200-250 g; 1.5 g/kg i.m. urethane) was opened after tracheotomy by a median upper abdominal incision and a PVC catheter was fixed transorally in the esophagus and another via the pylorus such that the ends of the tubes just projected into the gastric lumen. The catheter leading from the pylorus led outward into the right abdominal wall through a side opening.
# After thorough rinsing (about 50-100 ml), warm (37° C.) physiological NaCl solution was continuously passed through the stomach (0.5 ml/min, pH 6.8-6.9; Braun-Unita I). The pH (pH meter 632, glass electrode EA 147; Φ=5 mm, Metrohm) and, by titration with a freshly prepared 0.01N NaOH solution to pH 7 (Dosimat 665 Metrohm), the secreted HCl were determined in the effluent in each case collected at an interval of 15 minutes.
# The gastric secretion was stimulated by continuous infusion of 1 μg/kg (=1.65 ml/h) of i.v. pentagastrin (left femoral vein) about 30 min after the end of the operation (i.e. after determination of 2 preliminary fractions). The substances to be tested were administered intraduodenally in a 2.5 ml/kg liquid volume 60 min after the start of the continuous pentagastrin infusion.
# The body temperature of the animals was kept at a constant 37.8-38° C. by infrared irradiation and heat pads (automatic, stepless control by means of a rectal temperature sensor).
row,Compound,Inhibition of acid secretion (%)
1,"COc1ccc2nc([S+]([O-])Cc3nccc(OC)c3OC)[nH]c2n1 (stereo not drawn) [Example 1, 2-(3,4-Dimethoxy-pyridine-2-ylmethanesulfinyl)-5-methoxy-3H-imidazo[4,5-b]pyridine]",>50
2,"COc1ccc2nc([S@@+]([O-])Cc3nccc(OC)c3OC)[nH]c2n1 [Example 2, (S)-2-(3,4-Dimethoxy-pyridine-2-ylmethanesulfinyl)-5-methoxy-3H-imidazo[4,5-b]pyridine]",>50
3,"COc1ccc2nc([S@+]([O-])Cc3nccc(OC)c3OC)[nH]c2n1 [Example 3, (R)-2-(3,4-Dimethoxy-pyridine-2-ylmethanesulfinyl)-5-methoxy-3H-imidazo[4,5-b]pyridine]",>50
